Where a chain is given by its changes, count along the chain named. “And” between values parts separate entries of the source, which are not always exact repeats. Identical values can stand only once.
Key:
Assay in all cases: biochemical
Conditions in all cases: IC50 (M)
[1] = molecular target: T1, recombinant wildtype and mutated PPO (Amaranthus PPO2: PPX2L_WC SEQ ID NO 2, PPX2L_AC SEQ ID NO 4, dG210 SEQ ID NO 6 & 8) (Amaranthus tuberculatus, UniProt Q0NZW9, D133A/F420M/R128Y)
T1 sequence (Q0NZW9 1-534 R128Y/D133A/F420M): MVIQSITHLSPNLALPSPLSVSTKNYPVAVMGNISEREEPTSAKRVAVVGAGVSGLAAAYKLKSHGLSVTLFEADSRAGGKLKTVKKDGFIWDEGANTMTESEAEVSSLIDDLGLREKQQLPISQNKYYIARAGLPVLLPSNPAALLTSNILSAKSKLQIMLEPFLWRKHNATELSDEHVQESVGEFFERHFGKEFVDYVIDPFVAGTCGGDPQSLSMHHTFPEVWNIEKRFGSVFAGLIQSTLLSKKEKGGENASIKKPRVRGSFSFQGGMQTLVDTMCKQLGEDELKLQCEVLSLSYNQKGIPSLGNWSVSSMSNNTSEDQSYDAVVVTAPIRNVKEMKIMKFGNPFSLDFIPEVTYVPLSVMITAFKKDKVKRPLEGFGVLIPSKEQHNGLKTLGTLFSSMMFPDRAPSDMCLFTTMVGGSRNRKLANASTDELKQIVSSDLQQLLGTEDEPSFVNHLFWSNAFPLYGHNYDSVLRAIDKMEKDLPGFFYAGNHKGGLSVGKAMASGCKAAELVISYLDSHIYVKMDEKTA

[2] = molecular target: T2, recombinant wildtype and mutated PPO (Amaranthus PPO2: PPX2L_WC SEQ ID NO 2, PPX2L_AC SEQ ID NO 4, dG210 SEQ ID NO 6 & 8) (Amaranthus tuberculatus, UniProt Q0NZW9, D133A/F420M/R128N)
T2 sequence (Q0NZW9 1-534 R128N/D133A/F420M): T1 sequence (Q0NZW9 1-534 R128Y/D133A/F420M) with Y128N

[3] = molecular target: recombinant wildtype and mutated PPO (Amaranthus PPO2: PPX2L_WC SEQ ID NO 2, PPX2L_AC SEQ ID NO 4, dG210 SEQ ID NO 6 & 8) (Amaranthus tuberculatus, UniProt Q0NZW9, D133A/F420L/R128C)
[4] = molecular target: T3, recombinant wildtype and mutated PPO (Amaranthus PPO2: PPX2L_WC SEQ ID NO 2, PPX2L_AC SEQ ID NO 4, dG210 SEQ ID NO 6 & 8) (Amaranthus tuberculatus, UniProt Q0NZW9, D133A/F420M/R128F)
T3 sequence (Q0NZW9 1-534 R128F/D133A/F420M): T1 sequence (Q0NZW9 1-534 R128Y/D133A/F420M) with Y128F

[5] = molecular target: T4, recombinant wildtype and mutated PPO (Amaranthus PPO2: PPX2L_WC SEQ ID NO 2, PPX2L_AC SEQ ID NO 4, dG210 SEQ ID NO 6 & 8) (Amaranthus tuberculatus, UniProt Q0NZW9, D133A/F420L/R128F)
T4 sequence (Q0NZW9 1-534 R128F/D133A/F420L): T1 sequence (Q0NZW9 1-534 R128Y/D133A/F420M) with Y128F, M420L

Chain of recombinant wildtype and mutated PPO (Amaranthus PPO2: PPX2L_WC SEQ ID NO 2, PPX2L_AC SEQ ID NO 4, dG210 SEQ ID NO 6 & 8) (Amaranthus tuberculatus, UniProt Q0NZW9, D133A/F420L/R128C) (Q0NZW9 1-534 R128C/D133A/F420L): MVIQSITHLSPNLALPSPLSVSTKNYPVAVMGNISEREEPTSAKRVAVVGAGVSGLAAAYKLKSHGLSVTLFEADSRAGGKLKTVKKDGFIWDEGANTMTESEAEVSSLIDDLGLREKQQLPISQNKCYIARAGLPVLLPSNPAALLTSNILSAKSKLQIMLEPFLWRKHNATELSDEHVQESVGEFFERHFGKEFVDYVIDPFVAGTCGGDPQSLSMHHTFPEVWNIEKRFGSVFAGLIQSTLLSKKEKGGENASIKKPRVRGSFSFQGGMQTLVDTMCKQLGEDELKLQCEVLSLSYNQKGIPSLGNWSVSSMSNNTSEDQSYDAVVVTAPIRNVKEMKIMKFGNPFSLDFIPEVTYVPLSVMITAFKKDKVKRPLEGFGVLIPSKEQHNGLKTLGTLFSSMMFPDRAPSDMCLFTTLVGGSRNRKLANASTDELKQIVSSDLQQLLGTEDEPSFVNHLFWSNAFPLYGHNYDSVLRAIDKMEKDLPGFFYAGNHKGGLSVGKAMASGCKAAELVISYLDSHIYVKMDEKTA

Structure (SMILES)	IC50 [1]	IC50 [2]	IC50 [3]	IC50 [4] [M]	IC50 [5] [M]
C#CCN1C(=O)C(F)(F)Oc2cc(F)c(N3C(=O)C4=C(CCCC4)C3=O)cc21	≥ 1e-05 M	≥ 1e-05 M	≥ 1e-05 M		
COC(=O)C(OC)Oc1ccccc1Oc1cc(-n2c(=O)cc(C(F)(F)F)n(C)c2=O)c(F)cc1Cl (centres unmarked)		1.2e-07 M		2.81e-09	4.84e-08
COC(Oc1ccccc1Oc1cc(-n2c(=O)cc(C(F)(F)F)n(C)c2=O)c(F)cc1Cl)C(=O)OC1CCCCC1 (centres unmarked)		1.48e-07 M		6.26e-08	1.18e-06
CCOC(=O)COc1ncccc1Oc1cc(-n2c(=O)cc(C(F)(F)F)n(C)c2=O)c(F)cc1Cl [A.13, ethyl [3-[2-chloro-4-fluoro-5-(1-methyl-6-trifluoromethyl-2,4-dioxo-1,2,3,4-tetrahydropyrimidin-3-yl)phenoxy]-2-pyridyloxy]acetate]	8.92e-08 M	1.92e-07 M	6.81e-07 M		
C#CCN1C(=O)C(F)(F)Oc2cc(F)c(-n3c(=O)cc(C(F)(F)F)n(C)c3=O)cc21	1.13e-07 M	5.94e-08 M	6.72e-08 M		
C#CCN1C(=O)C(F)(F)Oc2cc(F)c(-n3c(=O)n(C)c(=S)n(C)c3=O)cc21	2.85e-07 M and 1.02e-07 M	7.12e-08 M and 4.97e-08 M	1e-07 M and 1.83e-07 M	1.21e-07	1.01e-06
C=CCOC(=O)C(C)(C)OC(=O)c1cc(-n2c(=O)cc(C(F)(F)F)n(C)c2=O)ccc1Cl [BUTAFENACIL]	5.04e-08 M	2.84e-08 M	1.1e-07 M		
CS(=O)(=O)NC(=O)c1cc(Oc2ccc(C(F)(F)F)cc2Cl)ccc1[N+](=O)[O-] [Fomesafen, fomesafen]	≥ 1e-05 M	1.07e-05 M	≥ 1e-05 M		
CCOC(=O)C(C)OC(=O)c1cc(Oc2ccc(C(F)(F)F)cc2Cl)ccc1[N+](=O)[O-] (centres unmarked) [Lactofen, lactofen]	1.43e-07 M	1.67e-07 M	1.42e-07 M		
CCOc1cc(Oc2ccc(C(F)(F)F)cc2Cl)ccc1[N+](=O)[O-] [OXIFLUORFEN]	1.13e-06 M	3.91e-07 M	1.49e-06 M		
C#CCN1C(=O)COc2cc(F)c(N3C(=O)C4=C(CCCC4)C3=O)cc21 [Flumioxazin, flumioxazin]	≥ 1e-05 M	6.15e-06 M	≥ 1e-05 M		
O=C(O)c1cc(Oc2ccc(C(F)(F)F)cc2Cl)ccc1[N+](=O)[O-] [ACIFLUORFEN]	≥ 1e-05 M	≥ 1e-05 M	≥ 1e-05 M		
CCOC(=O)C(Cl)Cc1cc(-n2nc(C)n(C(F)F)c2=O)c(F)cc1Cl (centres unmarked) [CARFENTRAZONE-ETHYL]	8.52e-08 M	1.88e-07 M	3.08e-07 M		

— patent publication US11866720B2, “Transgenic or non-transgenic plants with mutated protoporphyrinogen oxidase having increased tolerance to herbicides” (priority 2013, dated 2024)
